This assay has as its target human F508del-CFTR (Homo sapiens, UniProt P13569, DEL508-508). Description: F508del-CFTR cell surface expression (corrector activity), DiscoveRx ß-galactosidase complementation chemiluminescence assay in recombinant U2OS cell line.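 On all read-outs here: U2OS cells co-expressing ProLink-tagged F508del-CFTR and a membrane-anchored enzyme acceptor, where more surface CFTR restores β-galactosidase activity measured by chemiluminescence.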 Conditions: for EC50: EC50, F508del-CFTR cell surface expression, U2OS cells, 16h compound incubation, geomean values; for Emax: in relation to Emax of corrector lumacaftor (=100%), arithmetic mean values.

The EC50 is the concentration that produces a half-maximal response. By Emax is commonly meant the maximal effect, on the per cent scale that the assay sets.

human F508del-CFTR, sequence (P13569 with tags, fused parts or gaps DEL508-508): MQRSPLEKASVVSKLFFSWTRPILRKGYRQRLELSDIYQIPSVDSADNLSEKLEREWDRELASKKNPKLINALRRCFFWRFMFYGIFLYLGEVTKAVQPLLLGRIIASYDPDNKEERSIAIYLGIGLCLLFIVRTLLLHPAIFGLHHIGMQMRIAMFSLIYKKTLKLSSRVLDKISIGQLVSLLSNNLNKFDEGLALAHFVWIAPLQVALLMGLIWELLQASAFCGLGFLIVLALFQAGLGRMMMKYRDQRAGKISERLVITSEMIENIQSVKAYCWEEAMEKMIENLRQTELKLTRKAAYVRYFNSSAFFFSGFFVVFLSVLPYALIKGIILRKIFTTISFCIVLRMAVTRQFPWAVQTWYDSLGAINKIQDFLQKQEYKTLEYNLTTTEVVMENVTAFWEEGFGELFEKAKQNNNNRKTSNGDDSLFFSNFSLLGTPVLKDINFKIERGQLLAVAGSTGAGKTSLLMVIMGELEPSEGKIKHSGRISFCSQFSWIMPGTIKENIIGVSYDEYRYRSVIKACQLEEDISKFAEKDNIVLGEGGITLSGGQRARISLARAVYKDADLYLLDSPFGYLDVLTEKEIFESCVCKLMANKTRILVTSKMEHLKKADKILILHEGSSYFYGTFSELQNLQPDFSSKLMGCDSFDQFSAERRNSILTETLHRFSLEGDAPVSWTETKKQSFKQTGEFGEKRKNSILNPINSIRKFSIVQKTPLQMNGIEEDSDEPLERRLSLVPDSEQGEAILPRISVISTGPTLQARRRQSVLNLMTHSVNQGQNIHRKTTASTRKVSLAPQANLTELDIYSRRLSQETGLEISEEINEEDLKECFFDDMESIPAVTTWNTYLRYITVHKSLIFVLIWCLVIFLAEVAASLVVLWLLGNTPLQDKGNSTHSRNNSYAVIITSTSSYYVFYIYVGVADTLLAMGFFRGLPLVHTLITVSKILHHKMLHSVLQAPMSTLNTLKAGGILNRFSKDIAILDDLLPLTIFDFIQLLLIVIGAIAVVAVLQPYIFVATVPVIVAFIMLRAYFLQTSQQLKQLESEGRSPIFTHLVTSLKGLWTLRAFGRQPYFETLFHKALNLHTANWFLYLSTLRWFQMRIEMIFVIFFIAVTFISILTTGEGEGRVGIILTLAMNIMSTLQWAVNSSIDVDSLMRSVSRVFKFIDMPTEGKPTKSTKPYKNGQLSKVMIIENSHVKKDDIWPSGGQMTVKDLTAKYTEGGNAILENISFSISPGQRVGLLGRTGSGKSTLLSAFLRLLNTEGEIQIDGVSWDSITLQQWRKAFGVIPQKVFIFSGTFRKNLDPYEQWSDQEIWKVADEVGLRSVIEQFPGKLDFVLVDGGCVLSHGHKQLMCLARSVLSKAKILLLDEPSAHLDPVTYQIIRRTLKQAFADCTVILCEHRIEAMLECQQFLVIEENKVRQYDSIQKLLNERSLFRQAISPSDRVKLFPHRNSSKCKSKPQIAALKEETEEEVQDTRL

With `COc1nccc2c1C(=O)N[C@H](C(=O)NCCc1cc(C3CC3)no1)CC(=O)N(C)[C@@H](CC(C)C)C(=O)N1CCCC[C@@H]1C(=O)N[C@H](Cc1ccccc1)CO2` [Example 523, (7S,11S,17aR,20R)-20-benzyl-N-(2-(3-cyclopropylisoxazol-5-yl)ethyl)-11-isobutyl-4-methoxy-10-methyl-5,9,12,18-tetraoxo-5,6,7,8,9,10,11,12,15,16,17,17a,18,19,20,21-hexadecahydro-14H-dipyrido[2,1-f:3′,4′-p][1]oxa[4,7,10,14]tetraazacycloheptadecine-7-carboxamide], the EC50 turned out to be 483 nM. For the same compound, where the note is “U2OS”, the Emax stood at 352%.
For `CC(C)C[C@H]1C(=O)N2CCN(c3ccccc3)C[C@H]2C(=O)N[C@H](Cc2ccccc2)COc2cnc3ccc(F)cc3c2C(=O)N[C@H](C(=O)NCCc2cc(C3CC3)no2)CC(=O)N1C` [Example 524, (9S,13S,19aR,22R)-22-benzyl-N-(2-(3-cyclopropylisoxazol-5-yl)ethyl)-5-fluoro-13-isobutyl-12-methyl-7,11,14,20-tetraoxo-18-phenyl-7,8,9,10,11,12,13,14,17,18,19,19a,20,21,22,23-hexadecahydro-16H-pyrazino[2′,11:6,7][1]oxa[4,7,10,14]tetraazacycloheptadecino[17,16-c]quinoline-9-carboxamide] the same measures were 60 nM and 339%.
In the case of `CC(C)C[C@H]1C(=O)N2CCN(c3ccccc3)C[C@H]2C(=O)N[C@H](Cc2ccccc2)COc2cnc3ccc(F)cc3c2C(=O)N[C@H](C(=O)NCCc2nc(C3CC3)no2)CC(=O)N1C` [Example 525, (9S,13S,19aR,22R)-22-benzyl-N-(2-(3-cyclopropyl-1,2,4-oxadiazol-5-yl)ethyl)-5-fluoro-13-isobutyl-12-methyl-7,11,14,20-tetraoxo-18-phenyl-7,8,9,10,11,12,13,14,17,18,19,19a,20,21,22,23-hexadecahydro-16H-pyrazino[2′,11:6,7][1]oxa[4,7,10,14]tetraazacycloheptadecino[17,16-c]quinoline-9-carboxamide], the EC50 came out at 56 nM. For the same compound, the Emax (U2OS) was determined as 288%.
For `COc1cc2c(cn1)OC[C@@H](Cc1ccccc1)NC(=O)[C@H]1CCCCN1C(=O)[C@H](CC(C)C)N(C)C(=O)C[C@@H](C(=O)NCCc1cc(C3CC3)on1)NC2=O` [Example 526, (7S,11S,17aR,20R)-20-benzyl-N-(2-(5-cyclopropylisoxazol-3-yl)ethyl)-11-isobutyl-3-methoxy-10-methyl-5,9,12,18-tetraoxo-5,6,7,8,9,10,11,12,15,16,17,17a,18,19,20,21-hexadecahydro-14H-dipyrido[2,1-f:4′,3′-p][1]oxa[4,7,10,14]tetraazacycloheptadecine-7-carboxamide], the EC50 came to 394 nM and the Emax came to 167%.
In the case of `Cc1cc(CCNC(=O)[C@@H]2CC(=O)N(C)[C@@H](CC(C)C)C(=O)N3CCCC[C@H]3C(=O)N[C@H](Cc3ccccc3)COc3cnc4ccc(Cl)cc4c3C(=O)N2)on1` [Example 527, (9S,13S,19aR,22R)-22-benzyl-5-chloro-13-isobutyl-12-methyl-N-(2-(3-methylisoxazol-5-yl)ethyl)-7,11,14,20-tetraoxo-7,8,9,10,11,12,13,14,17,18,19,19a,20,21,22,23-hexadecahydro-16H-pyrido[2′,11:6,7][1]oxa[4,7,10,14]tetraazacycloheptadecino[17,16-c]quinoline-9-carboxamide], the EC50 amounted to 151 nM. The Emax (U2OS) came to 318%.
On to `COc1cccc(CCNC(=O)[C@@H]2CC(=O)N(C)[C@@H](CC(C)C)C(=O)N3CCCC[C@@H]3C(=O)N[C@H](Cc3ccccc3)COc3cnc4ccc(Cl)cc4c3C(=O)N2)c1` [Example 528, (9S,13S,19aR,22R)-22-benzyl-5-chloro-13-isobutyl-N-(3-methoxyphenethyl)-12-methyl-7,11,14,20-tetraoxo-7,8,9,10,11,12,13,14,17,18,19,19a,20,21,22,23-hexadecahydro-16H-pyrido[2′,11:6,7][1]oxa[4,7,10,14]tetraazacycloheptadecino[17,16-c]quinoline-9-carboxamide], for which the 50% effective concentration (EC50) stood at 321 nM. In addition, the Emax (U2OS) turned out to be 337%.
